Structures are written as SMILES. In brackets after ≈: the same amount, converted by molar mass. A value given as a limit tells only on which side of the number the result lay.

The values that follow come from PMC12055641, “The Study of Antistaphylococcal Potential of Omiganan and Retro-Omiganan Under Flow Conditions” (Probiotics and Antimicrobial Proteins, 2024).

Assay [1] concerns S. aureus ATCC 25923. Description: microbe, parasite or virus in culture. The text has this:
(§1) Clinical S. aureus strains were collected from patients with atopic dermatitis during their visits to the Outpatient Clinic and hospitalization in the Department of Dermatology, Venereology and Allergology at Medical University of Gdańsk (following the approval from the ethics committee, Approval Number NKBBN/242–477/2014). Reference strains of S. aureus ATCC 25923, S. aureus ATCC 33591, S. aureus ATCC 9144, and S. aureus ATCC 12598 were obtained from the American Type Culture Collection. All the strains were stored at − 80 °C in Roti®-Store cryo vials (Carl Roth GmbH, Karlsruhe, Germany) and before the tests were transferred into fresh Mueller–Hinton Medium (BioMaxima, Lublin, Poland) and incubated for 24 h at 37 °C. Subsequently, each bacterial inoculum was seeded on Mueller–Hinton agar plates (BioMaxima) and incubated again for 24 h. The cultures prepared in this way were used in further antimicrobial assays. Minimum inhibitory concentrations (MICs) were determined according to the Clinical and Laboratory Standards Institute recommendations. […] The experiments were conducted on 96-well microtiter plates, with a final volume of 100 μL. Additionally, in the case of daptomycin, the medium was supplemented with Ca^2+ (50 mg/L). Cell densities were adjusted spectrophotometrically (Multiskan™ GO Microplate Spectrophotometer, Thermo Scientific) at 600 nm. The MICs were taken as the lowest drug concentration at which a visible growth of the microorganisms was inhibited. Minimum biofilm eliminating concentrations (MBECs) were determined on 96-well flat-bottomed microtiter polystyrene plates with resazurin (7-hydroxy-3H-phenoxazin-3-one 10-oxide sodium salt) as a cell viability reagent. To do this, the plates were filled with 100 μL of the initial inoculums of bacteria (0.5 × 10^7 CFU/mL) in the Mueller–Hinton broth and incubated for 24 h at 37 °C. […] After 24 h of incubation, 20 μL of resazurin (4 mg/mL) was added to each well and the MBEC values were read. Minimum biofilm inhibitory concentrations (MBICs) were also determined on 96-well flat-bottomed microtiter polystyrene plates as described previously. To do this, 50 μL of the compounds in the concentration range, diluted MHB, were prepared. Subsequently, the 50 μL of the staphylococcal inoculums were added to reach the same density of bacteria as that in the MBEC assay. After 24 h of incubation at 37 °C, the wells were rinsed three times with PBS and the fresh medium (100 μL) with resazurin (0.6 mg/mL) was added. Then, after 1 h of incubation, MBICs were read. […] All experiments were conducted in triplicate.
(§2) Formation of the biofilm inside the PDMS flow chambers was performed using three peristaltic pumps working simultaneously (LP-pump, Kamush, Lipopharm, Poland) and sterile Tygon® 3350 silicone hoses (2.4 × 0.8 × 0.8 mm) with a length of 30 and 50 cm for inlet and outlet, respectively. Bacterial suspensions were prepared (0.5 × 10^7 CFU/mL) in sterile 50-mL test tubes, which were placed in a heating block at 37 °C. Before experiments, all channels were assessed for tightness and sterilized using a 70% 2-propanol solution (10 min, flow rate 1 mL/min) and rinsed with sterile PBS solution (10 min, flow 0.1 mL/min). The formation of biofilm inside the channels was divided into three stages: (1) adhesion—at this stage S. aureus suspensions were passed through the channels for 4 h at a flow rate of 0.1 mL/min; (2) rinsing—the previously used hoses were replaced with new sterile ones, and the channels were rinsed with sterile PBS solution for 10 min at a flow rate of 0.1 mL/min; (3) biofilm growth—after flushing the channels, the silicone hoses were placed in tubes with MHB medium, which was passed through the channels for 24 h at a flow rate of 0.1 mL/min. All experiments included growth and sterility controls.
(§3) This assay was conducted also on the S. aureus ATCC 25923 and S. aureus 33,591 (MRSA) strains.

The test system of assay [2] is S. aureus ATCC 33591 (MRSA). Briefly: microbe, parasite or virus in culture.
Source text: as §1, §2, §3

Assay [3] deals with S. aureus clinical strain 060S. More on the design: method as in earlier work. Particulars: clinical isolate 060S, skin; cited from earlier work.
Assay [4] has as its system S. aureus clinical strain 005S. Further details: method as in earlier work. Conditions: clinical isolate 005S, skin; cited from earlier work.
In assay [5] the test system is S. aureus clinical strain 043SC (MRSA). Further details: method as in earlier work. Particulars: clinical isolate 043SC (MRSA), skin of patient with furuncle folliculitis; cited from earlier work.
For assay [6], the system named is S. aureus clinical strain 015N (MRSA). More on the design: method as in earlier work. Particulars: clinical isolate 015N (MRSA), nasal swab; cited from earlier work.
Assay [7] deals with S. aureus clinical strain 030N. More on the design: method as in earlier work. Conditions: clinical isolate 030N, nasal swab; cited from earlier work.
Assay [8] deals with S. aureus clinical strain 009S. Further details: method as in earlier work. Particulars: clinical isolate 009S, skin; cited from earlier work.
In assay [9] the test system is S. aureus clinical strain 051N (MRSA). Further details: method as in earlier work. Particulars: clinical isolate 051N (MRSA), nasal swab; cited from earlier work.
Assay [10] has as its system S. aureus clinical strain 031S. Further details: method as in earlier work. Particulars: clinical isolate 031S, skin; cited from earlier work.
Assay [11] has as its system S. aureus clinical strain 004N (MRSA). Further details: method as in earlier work. Particulars: clinical isolate 004N (MRSA), nasal swab; cited from earlier work.

In the case of `C/C(=C\C(=O)OCCCCCCCCC(=O)O)C[C@@H]1OC[C@H](C[C@@H]2O[C@H]2[C@@H](C)[C@H](C)O)[C@@H](O)[C@H]1O` [Mupirocin], the MIC in [1] (S. aureus 25923 biofilm treated under flow with Retro-Omiganan (half MBEC) for 24 h) is not above 0.25 µg/mL; in assay [1] (S. aureus 25923 biofilm treated under flow with Retro-Omiganan (half MBEC) for 48 h), not above 0.25 µg/mL; in [1] (S. aureus 25923 biofilm treated under flow with Retro-Omiganan (half MBEC) for 72 h), not above 0.25 µg/mL; in assay [1] (Staphylococcus aureus, ATCC25923, 0 h), not above 0.25 µg/mL; in assay [1] (Staphylococcus aureus, ATCC25923, 24 h), not above 0.25 µg/mL; in [1] (Staphylococcus aureus, ATCC25923, 48 h), not above 0.25 µg/mL. The MIC is not above 0.25 µg/mL in assay [1] (Staphylococcus aureus, ATCC25923, 72 h); not above 0.25 µg/mL in [2] (S. aureus ATCC 33591 (MRSA) biofilm treated under flow with Retro-Omiganan (half MBEC) for 24 h); not above 0.25 µg/mL in [2] (S. aureus ATCC 33591 (MRSA) biofilm treated under flow with Retro-Omiganan (half MBEC) for 48 h); not above 0.25 µg/mL in [2] (S. aureus ATCC 33591 (MRSA) biofilm treated under flow with Retro-Omiganan (half MBEC) for 72 h); not above 0.25 µg/mL in [2] (Staphylococcus aureus, 0 h); not above 0.25 µg/mL in assay [2] (Staphylococcus aureus, 24 h). Also, the MIC in assay [2] (Staphylococcus aureus, 48 h) is not above 0.25 µg/mL; in assay [2] (Staphylococcus aureus, 72 h) it was not above 0.25 µg/mL. Moreover, the “Antimicrobial susceptibility (MIC)” value in assay [3] is more than 512 µg/mL; in assay [4], more than 512 µg/mL; in assay [5], 0.5 µg/mL; in assay [6] it was 0.25 µg/mL; in [7], 0.25 µg/mL; in assay [8], more than 512 µg/mL. In addition, the “Antimicrobial susceptibility (MIC)” value is on record as 0.25 µg/mL in assay [9], 32 µg/mL in [10] and 0.125 µg/mL in assay [11].

On to `CN[C@H](CC(C)C)C(=O)N[C@H]1C(=O)N[C@@H](CC(N)=O)C(=O)N[C@H]2C(=O)N[C@H]3C(=O)N[C@H](C(=O)N[C@H](C(=O)O)c4cc(O)cc(O)c4-c4cc3ccc4O)[C@H](O)c3ccc(c(Cl)c3)Oc3cc2cc(c3O[C@@H]2O[C@H](CO)[C@@H](O)[C@H](O)[C@H]2O[C@H]2C[C@](C)(N)[C@H](O)[C@H](C)O2)Oc2ccc(cc2Cl)[C@H]1O` [Vancomycin], for which the MIC in [1] (Staphylococcus aureus, ATCC25923, 0 h, S. aureus 25923, time 0 h (baseline, before peptide exposure)) was found to be 1 µg/mL (≈ 0.69 µM); in assay [1] (Staphylococcus aureus, ATCC25923, 24 h, S. aureus 25923 biofilm treated under flow with Omiganan (half MBEC) for 24 h) it was 1 µg/mL (≈ 0.69 µM); in [1] (Staphylococcus aureus, ATCC25923, 24 h, S. aureus 25923 biofilm treated under flow with Retro-Omiganan (half MBEC) for 24 h) it was 1 µg/mL (≈ 0.69 µM); in assay [1] (Staphylococcus aureus, ATCC25923, 48 h, S. aureus 25923 biofilm treated under flow with Omiganan (half MBEC) for 48 h), 1 µg/mL (≈ 0.69 µM); in assay [1] (Staphylococcus aureus, ATCC25923, 48 h, S. aureus 25923 biofilm treated under flow with Retro-Omiganan (half MBEC) for 48 h), 1 µg/mL (≈ 0.69 µM); in assay [1] (Staphylococcus aureus, ATCC25923, 72 h, S. aureus 25923 biofilm treated under flow with Omiganan (half MBEC) for 72 h) it was 1 µg/mL (≈ 0.69 µM). For the same compound, the MIC in assay [1] (Staphylococcus aureus, ATCC25923, 72 h, S. aureus 25923 biofilm treated under flow with Retro-Omiganan (half MBEC) for 72 h) stood at 1 µg/mL (≈ 0.69 µM); in assay [2] (Staphylococcus aureus, ATCC33591|MRSA, 0 h, S. aureus ATCC 33591 (MRSA), time 0 h (baseline, before peptide exposure)), 1 µg/mL (≈ 0.69 µM); in [2] (Staphylococcus aureus, ATCC33591|MRSA, 24 h, S. aureus ATCC 33591 (MRSA) biofilm treated under flow with Omiganan (half MBEC) for 24 h), 1 µg/mL (≈ 0.69 µM); in assay [2] (Staphylococcus aureus, ATCC33591|MRSA, 24 h, S. aureus ATCC 33591 (MRSA) biofilm treated under flow with Retro-Omiganan (half MBEC) for 24 h), 1 µg/mL (≈ 0.69 µM); in assay [2] (Staphylococcus aureus, ATCC33591|MRSA, 48 h, S. aureus ATCC 33591 (MRSA) biofilm treated under flow with Omiganan (half MBEC) for 48 h), 1 µg/mL (≈ 0.69 µM); in assay [2] (Staphylococcus aureus, ATCC33591|MRSA, 48 h, S. aureus ATCC 33591 (MRSA) biofilm treated under flow with Retro-Omiganan (half MBEC) for 48 h), 1 µg/mL (≈ 0.69 µM). Moreover, the MIC in [2] (Staphylococcus aureus, ATCC33591|MRSA, 72 h, S. aureus ATCC 33591 (MRSA) biofilm treated under flow with Omiganan (half MBEC) for 72 h) stood at 1 µg/mL (≈ 0.69 µM); in assay [2] (Staphylococcus aureus, ATCC33591|MRSA, 72 h, S. aureus ATCC 33591 (MRSA) biofilm treated under flow with Retro-Omiganan (half MBEC) for 72 h) it was 1 µg/mL (≈ 0.69 µM). In addition, the “Antimicrobial susceptibility (MIC)” value in assay [3] is reported as 0.5 µg/mL; in assay [4], 0.125 µg/mL; in assay [5] it was 0.5 µg/mL; in assay [6], 1 µg/mL; in assay [7], 2 µg/mL; in assay [8], 0.25 µg/mL. In addition, the “Antimicrobial susceptibility (MIC)” value was 0.5 µg/mL in assay [9], 0.25 µg/mL in [10] and 0.5 µg/mL in assay [11].
